Data published in patent publication US4206215A, “Antimicrobial bis-[4-(substituted-amino)-1-pyridinium]alkanes” (Sterling Drug Inc., priority 1977, dated 1980).
Read-outs that look alike come from different tables or passages of the source.

Legend:
S. pyogen. C203 = assay: In vitro antibacterial activity, MIC (modified Autotiter method); assay type: cell-based, Streptococcus pyogenes; conditions: Streptococcus pyogenes, 20 h, read-out: MIC S. pyogen. C203
Experimental: (§1) The antibacterial and antifungal activity of representative examples of the compounds of Formula I was determined using a modification of the Autotiter method described by Goss, et al. Applied Microbiology 16 (9) 1,414-1,416 (1968) in which a 1,000 mcg./ml. solution of the test compound is prepared. To the first cup of the Autotray is added 0.1 ml. of the test solution. Activation of the Autotiter initiates a sequence of operations by which 0.05 ml. of the test compound solution is withdrawn from the cup by a Microtiter transfer loop and diluted in 0.05 ml. of sterile water. Following this operation, 0.05 ml. of inoculated double-strength semisynthetic medium (glucose) is added automatically to each cup. The overall operation results in final drug concentrations ranging from 500 to 0.06 mcg./ml. in twofold decrements. […] The compounds were thus tested as solutions against a variety of gram positive and gram negative bacteria including Staphylococcus aureus, Proteus mirabilis, Escherichia coli, Klebsiella pneumoniae, Pseudomonas aeruginosa, Streptococcus pyogenes, and against such fungi as Aspergillus niger, Candida albicans and Trichophyton mentagrophytes.

P. mirab. MGH-1 = assay: as above; assay type: cell-based, Proteus mirabilis; conditions: Proteus mirabilis, 20 h, read-out: MIC P. mirab. MGH-1
Experimental: as §1

C. albicans 10231 = assay: In vitro antifungal activity, MIC (modified Autotiter method); assay type: cell-based, Candida albicans; conditions: Candida albicans, 10231, 20 h, read-out: MIC C. albicans 10231
Experimental: as §1

C. albicans Wisc. = assay: as above; assay type: cell-based, Candida albicans; conditions: Candida albicans, 20 h, read-out: MIC C. albicans Wisc.
Experimental: as §1

E. coli AB1932-1 = assay: In vitro antibacterial activity, MIC (modified Autotiter method); assay type: cell-based, Escherichia coli; conditions: Escherichia coli, AB19321, 20 h, read-out: MIC E. coli AB1932-1
Experimental: as §1

E. coli Vogel = assay: as above; assay type: cell-based, Escherichia coli; conditions: Escherichia coli, 20 h, read-out: MIC E. coli Vogel
Experimental: as §1

E. coli 100/B22 = assay: as above; assay type: cell-based, Escherichia coli; conditions: Escherichia coli, 100/B22, 20 h
Experimental: as §1

T. menta. 9129 = assay: In vitro antifungal activity, MIC (modified Autotiter method); assay type: cell-based, Trichophyton mentagrophytes; conditions: Trichophyton mentagrophytes, 20 h, read-out: MIC T. menta. 9129
Experimental: as §1

S. Aureus Smith = assay: In vitro antibacterial activity, MIC (modified Autotiter method); assay type: cell-based, Staphylococcus aureus; conditions: Staphylococcus aureus, 20 h, read-out: MIC S. Aureus Smith
Experimental: as §1

K. pneum. 39645 = assay: as above; assay type: cell-based, Klebsiella pneumoniae; conditions: Klebsiella pneumoniae, 20 h, read-out: MIC K. pneum. 39645
Experimental: as §1

Ps. aerug. MGH-2 = assay: as above; assay type: cell-based, Pseudomonas aeruginosa; conditions: Pseudomonas aeruginosa, 20 h, read-out: MIC Ps. aerug. MGH-2
Experimental: as §1

A. niger 16404 = assay: In vitro antifungal activity, MIC (modified Autotiter method); assay type: cell-based, Aspergillus niger; conditions: Aspergillus niger, 16404, 20 h, read-out: MIC A. niger 16404
Experimental: as §1

[1] = 18-20 hours at 37° C., read-out: MIC E. coli 100/B22

| Compound | MIC (S. pyogen. C203; 18-20 hours at 37° C.) [µg/mL] | MIC (P. mirab. MGH-1; 18-20 hours at 37° C.) [µg/mL] | MIC (C. albicans 10231; 18-20 hours at 37° C.) [µg/mL] | MIC (C. albicans Wisc.; 18-20 hours at 37° C.) [µg/mL] | MIC (E. coli AB1932-1; 18-20 hours at 37° C.) [µg/mL] | MIC (E. coli Vogel; 18-20 hours at 37° C.) [µg/mL] | MIC (E. coli 100/B22; [1]) [µg/mL] | MIC (T. menta. 9129; 18-20 hours at 37° C.) [µg/mL] | MIC (S. Aureus Smith; 18-20 hours at 37° C.) [µg/mL] | MIC (K. pneum. 39645; 18-20 hours at 37° C.) [µg/mL] | MIC (Ps. aerug. MGH-2; 18-20 hours at 37° C.) [µg/mL] | MIC (A. niger 16404; 18-20 hours at 37° C.) [µg/mL] | also measured |
| --- | --- | --- | --- | --- | --- | --- | --- | --- | --- | --- | --- | --- | --- |
| CCCCCCCCCCCCNc1cc[n+](CCCCCCC[n+]2ccc(NCCCCCCCCCCCC)cc2)cc1 [Example 71, 1,7-bis-[4-(dodecylamino)-1-pyridinium]heptane dibromide] | 7.8 | 62.5 | 62.5 | 62.5 | 62.5 | 62.5 | 62.5 | 7.8 | 3.9 | > 62.5 | 62.5 | 62.5 | – |
| CCCCCCCCCCCCNc1cc[n+](CCCCCCCC[n+]2ccc(NCCCCCCCCCCCC)cc2)cc1 [Example 72, 1,8-bis-[4-(dodecylamino)-1-pyridinium]octane dibromide] | 15.6 | 62.5 | 31.3 | 31.3 | 62.5 | 31.3 | > 62.5 | 7.8 | 7.8 | > 62.5 | > 62.5 | > 62.5 | – |
| CCCCCCCCCCCCNc1cc[n+](CCCCCCCCC[n+]2ccc(NCCCCCCCCCCCC)cc2)cc1 [Example 73, 1,9-bis-[4-(dodecylamino)-1-pyridinium]nonane dibromide] | 15.6 | 62.5 | > 62.5 | 31.3 | > 62.5 | 62.5 | 62.5 | 7.8 | 7.8 | > 62.5 | > 62.5 | > 62.5 | – |
| CCCCCCCCCCCCNc1cc[n+](CCCCCCCCCC[n+]2ccc(NCCCCCCCCCCCC)cc2)cc1 [Example 74, 1,10-bis-[4-(dodecylamino)-1-pyridinium]decane dibromide] | 15.6 | > 62.5 | > 62.5 | > 62.5 | > 62.5 | > 62.5 | > 62.5 | 15.6 | 15.6 | > 62.5 | > 62.5 | > 62.5 | – |
| CCCCCCCCCCCCNc1cc[n+](CCCCCCCCCCCC[n+]2ccc(NCCCCCCCCCCCC)cc2)cc1 [Example 75, 1,12-bis-[4-(dodecylamino)-1-pyridinium]dodecane dibromide] | 15.6 | > 62.5 | > 62.5 | > 62.5 | > 62.5 | > 62.5 | > 62.5 | 15.6 | 31.3 | > 62.5 | > 62.5 | > 62.5 | – |
| Clc1ccc(Nc2cc[n+](CCCC[n+]3ccc(Nc4ccc(Cl)cc4)cc3)cc2)cc1 [Example 76C, 1,4-bis-[4-(p-chlorophenylamino)-1-pyridinium]butane dimethanesulfonate] | 1.95 | > 250 | 125 | 12.5 | 7.8 | 15.6 | 15.6 | 62.5 | 7.8 | > 250 | > 125 | > 250 | – |
| Clc1ccc(Nc2cc[n+](CCCCCC[n+]3ccc(Nc4ccc(Cl)cc4)cc3)cc2)cc1 [Example 77B, 1,6-bis-[4-(p-chlorophenylamino)-1-pyridinium]hexane dimethanesulfonate] | 1.95 | 500 | 62.5 | 125 | 3.9 | 15.6 | 15.6 | 15.6 | 3.9 | 500 | 500 | 62.5 | – |
| Clc1ccc(Nc2cc[n+](CCCCCCCC[n+]3ccc(Nc4ccc(Cl)cc4)cc3)cc2)cc1 [Example 78B, 1,8-bis-[4-(p-chlorophenylamino)-1-pyridinium]octane dimethanesulfonate] | 0.2 | 125 | 62.5 | 62.5 | 1.6 | 3.1 | 3.1 | 31.3 | 0.4 | 31.3 | 125 | 31.3 | – |
| Clc1ccc(Nc2cc[n+](CCCCC[n+]3ccc(Nc4ccc(Cl)cc4)cc3)cc2)cc1 [Example 80, 1,5-bis-[4-(p-chlorophenylamino)-1-pyridinium]pentane dibromide] | 1.95 | > 125 | 62.5 | 62.5 | 31.3 | 125 | 125 | 15.6 | 7.8 | > 125 | > 125 | 62.5 | – |
| Fc1ccc(Nc2cc[n+](CCCCCC[n+]3ccc(Nc4ccc(F)cc4)cc3)cc2)cc1 [Example 83B, 1,6-bis-[4-(p-fluorophenylamino)-1-pyridinium]hexane dibromide] | 7.8 | > 125 | 31.3 | 31.3 | 15.6 | 31.3 | 15.6 | 31.3 | 15.6 | > 125 | > 62.5 | 31.3 | – |
| Fc1ccc(Nc2cc[n+](CCCCCCCC[n+]3ccc(Nc4ccc(F)cc4)cc3)cc2)cc1 [Example 84, 1,8-bis-[4-p-fluorophenylamino)-1-pyridinium]octane dibromide] | 7.8 | > 125 | 15.6 | 7.8 | 7.8 | 15.6 | 15.6 | 15.6 | 1.95 | > 62.5 | > 62.5 | 15.6 | – |
| Nc1cc[n+](CCCCCCCC[n+]2ccc(N)cc2)cc1 [I, 1,8-bis-(4-amino-1-pyridinium)octane dibromide, reference compound] | 31.3 | > 500 | 125 | 125 | 125 | 125 | 250 | 125 | 31.3 | > 500 | > 500 | 125 | – |
| Nc1cc[n+](CCCCCCCCCC[n+]2ccc(N)cc2)cc1 [II, 1,10-bis-(4-amino-1-pyridinium)decane dibromide, reference compound] | – | – | – | – | – | – | – | – | – | – | – | – | MIC (S. pyogen. C203): 7.8 µg/mL; MIC (P. mirab. MGH-1): > 500 µg/mL; MIC (C. albicans 10231): 250 µg/mL; MIC (C. albicans Wisc.): 62.5 µg/mL; MIC (E. coli AB1932-1): 31.3 µg/mL; MIC (E. coli Vogel): 62.5 µg/mL; MIC (E. coli 100/B22; read-out: MIC E. coli 100/B22, 18-20 hours at 37° C.): 62.5 µg/mL; MIC (T. menta. 9129): 15.6 µg/mL; MIC (S. Aureus Smith): 7.8 µg/mL; MIC (K. pneum. 39645): 250 µg/mL; MIC (Ps. aerug. MGH-2): 500 µg/mL; MIC (A. niger 16404): 125 µg/mL |
